{"source": "patent US7348330B2", "about": "“1-azabicyclo [2,2,2] octan-3-one derivatives” (Aprea AB, priority 2000, dated 2008)", "test": "Toxicity assessment in SCID mice", "type": "in vivo", "description": "All animal studies were approved by the local animal ethical committee and animal care was in accordance with institutional guidelines. For toxicity assessment, 12 SCID mice (average weight 25 g) were divided in 4 groups. […] Control animals were injected with PBS. We measured weights of the mice for 1 month after the last injection. […] After 3 days the mice were divided into 4 groups. […] Injections were performed twice daily for 3 days. Tumor volume was measured during 2 months.\nIn the untreated control group, the average tumor volume after 59 days was 555.7±284 mm^3 (means±SE, n=3).", "data": [{"smiles": "O=C1C2CCN(CC2)C1(CO)CO", "note": "[PRIMA-1, 2,2-bis(hydroxymethyl)-1-azabicyclo[2,2,2]octan-3-one]", "values": [{"measurement": "average weight of mice", "setting": "100 mg/kg i.v., after one month of observation, means±SE", "result": "20 ± 0.2", "unit": "g"}, {"measurement": "changes in behavior or weight", "setting": "intravenous injections, 1, 10 and 100 mg/kg daily for 5 days", "result": "did not cause any obvious changes in behavior or weight"}]}]}
